Measured values from patent US20220241314A1, “COMPOSITIONS AND METHODS FOR TREATMENT OF HEPATITIS B VIRUS INFECTION” (priority 2019, published 2022).
{ppp} = triphosphate

Legend:
[1] = system: HBV cccDNA; experiment: Subcellular compartment analysis of PF-RC DNA and cccDNA (synchronous infection, cell fractionation); type: cell-based, HBV (Genotype D); conditions: HepG2-hNTCP, treated from time 0 through 3 dpi; F7 10 μM, poly-U/UC PAMP 100 ng/ml
Procedure: FIG. 4A-4D illustrate subcellular compartment analysis of antiviral activity. (4A) and (4C) Scheme of HBV infection with F7 treatment (4A) or poly-U/UC PAMP treatment (4C). HepG2-hNTCP cultures were inoculated with HBV at moi 1000 Geq/cell for 24 hr. On treatment day 0 the cultures received F7 (10 μM) or poly-U/UC PAMP (100 ng/ml). Cells were harvested for production of Hirt extracts at each time point shown through three days. Parallel cultures were harvested for Western blot analysis to monitor Lamin B1 and Calnexin as markers of […] and cytosol respectively. (4B) and (4D) DNA was analyzed by Southern blot using HBV-specific DNA probe. Viral protein-free DNAs (protein-free Relaxed Circular DNA [PF-RC DNA]and cccDNA) are indicated. The positions of mass markers are indicated. Lower panels show Western blot of Lamin B1 and Calnexin abundance.
Cells were inoculated with HBV for 6 hours at 4° C., then the inoculum was removed, cells rinsed and placed in 37° C. media to initiate synchronous infection (time 0), at which time the cells were treated with F7 (FIG. 4A), or poly-U/UC PAMP (FIG. 4C) through 3 dpi. Whole cell (W), nuclear (N), and cytoplasmic (C) extracts were harvested over the time course, at 3 and 6 hours post-infection, and daily over 1-3 dpi, and PF-RC and cccDNA abundance were analyzed by Southern blot. […] For poly-U/UC PAMP treatment, cells were also harvested over a similar time course (see FIG. 4C).
HBV entry assay and cell fractionation: Cells were inoculated with HBV in presence of 4% PEG for 6 hours at 4°C. To assess HBV entry, inoculum was removed by washing with PBS that included proteinase K and cells were shifted to 37° C. post-attachment. After incubation and treatment, the cells were lysed in a hypotonic buffer (100 MM HEPES, 15 mM MgCl2, 100 mM KCL and Nonidet P-40), and homogenized with a dounce homogenizer. The cytoplasmic fraction was separated from nuclei pellet by centrifugation (6000×g for 5 min at 4° C.). Nuclei pellet was resuspended in extraction buffer (20 mM HEPES, 15 mM MgCl2, 420 mM NaCl, 0.2 mM EDTA and 25% (v/v) Glycerol including DTI and protease inhibitor cocktail). Each cellular fraction was mixed with 1% SDS (v/v) and protein-free DNA was extracted using the Hirt extraction method.

[2] = system: RIG-I; experiment: IRF3 activation in RIG-I or MDA5 knockout HepG2-hNTCP cells (immunoblot); type: cell-based, human; conditions: 24 hours
Procedure: FIGS. 6A-6D illustrate that F7 and poly-U/UC PAMP specifically signal IRF3 activation through RIG-I to suppress HBV cccDNA. (6A) F7 was administered for 24 hours to HepG2-hNTCP-NT (expressing non-targeting guide RNA), RKO (RIG-I knockout expressing RIG-I-targeting guide RNA), and MKO (MDA5-knock out expressing MDA5-targeting guide RNA). Cells were harvested and analyzed by immunoblot. The levels of protein expression by p-IRF3 (S386 phosphorylated, active IRF3), IRF3 (total IRF), IFIT1, RIG-I, and MDA5 relative to the expression level of tubulin were determined using respective antibodies. (6B) HepG2-hNTCP-NT, RKO, and MKO cells were treated with 100 ng,/ml of X-RNA or 100 ng/ml or 200 ng/ml of poly-U/UC PAMP for 24 hr. Cells were harvested and analyzed by immunoblot as in (6A). (6C and 6D) Cells were infected with HBV at moi of 1000 Geq/cell. After 24 hour cultures were treated with DMSO (−; negative control), CsA (treatment control), (6C) 10 μM) or F7 or (6D) X RNA or poly-U/UC PAMP. Three days later the cells were harvested, Hirt extracts prepared and subjected to Southern blot analysis using as HBV-DNA probe. The positions of mass markers are indicated. Values beneath each lane show percent cccDNA remaining compared to control treatment.
In order to ascertain whether the activation of IRF3 and suppression of cccDNA in HBV-infected cells by F7 or poly-U/UC PAMP treatment was dependent on RIG-I rather than occurring as an off-target effect of IRF3 agonist treatment, HepG2-hNTCP cells expressing non-targeting guide RNA (HepG2-hNTCP-NT), or guide RNA for knockout (KO) of RIG-I expression (HepG2-hNTCP-RKO) or MDA5 (HepG2-hNTCP-MKO) were produced using CRISPR/Cas9 genome editing technology. […] Next, each cell population was infected with HBV followed by a single treatment with F7 or poly-U/UC PAMP at 1 dpi. Cells were harvested at 3 dpi for Southern blot analysis of cccDNA levels. Parallel cultures of each cell population were treated with DMSO or single dose X-RNA (negative control) or with CsA as a treatment control. […]

[3] = system: IRF3; experiment: Immunoblot of IRF3 phosphorylation and IFIT1 expression; type: cell-based, human; conditions: HepG2-hNTCP and dHepaRG cells, 24 and 48 hours, dose-dependent
[4] = system: IRF3; experiment: Immunofluorescence analysis of IRF3 translocation; type: cell-based, human; conditions: HepG2-hNTCP cells, 24 hours; F7 10 μM; poly-U/UC PAMP or X-RNA 200 ng/ml in liposome
[5] = HepG2-hNTCP-RKO (RIG-I knockout) cells

## O=C(Nc1ccc2nc(NC(=O)c3ccc4ccccc4c3)sc2c1)c1ccccc1 [F7, N-(6-benzamido-1,3-benzothiazol-2-yl)naphthalene-2-carboxamide]
[1]
  PF-RC DNA in subcellular fractions, Southern blot: accumulation was reduced after 2-3 dpi
  cccDNA accumulation, Southern blot: delayed and reduced
[2]; HepG2-hNTCP-NT control and HepG2-hNTCP-MKO (MDA5 knockout) cells
  phosphorylated/activated IRF3 and IFIT1 expression: fully respond to F7
[2]; [5]
  phosphorylated/activated IRF3 and IFIT1 expression: do not respond to treatment
[3]
  IRF3 phosphorylation and IFIT1 expression: specifically induced IRF3 phosphorylation and the expression of IFIT1
[4]
  innate immune activation marked by IRF3 translocation into the nucleus: specifically induced innate immune activation

B1: poly-U/UC PAMP: ~100 nt PAMP motif from the HCV genome comprising 5′ppp and the poly U/UC region, recognized by RIG-I; formulated in liposome (nucleic acid)
chain: GGCCAUCCUGUUUUUUUCCCUUUUUUUUUUUCUUUUUUUUUUUUUUUUUUUUUUUUUUUUUUUUUUCUCCUUUUUUUUUCCUCUUUUUUUCCUUUUCUUUCCUUU
modifications: RNA, 5' {ppp}, backbone and methylation of C not given here; formulated in liposome
notes: ~100 nt PAMP motif from the HCV genome comprising 5′ppp and the poly U/UC region, recognized by RIG-I; formulated in liposome
[1]
  PF-RC DNA in subcellular fractions, Southern blot: Nuclear PF-RC DNA levels were reduced
  cccDNA accumulation, Southern blot: reduction of cccDNA
[2]; [5]
  phosphorylated/activated IRF3 and IFIT1 expression: do not respond to treatment
[3]
  IRF3 phosphorylation and IFIT1 expression: specifically induced IRF3 phosphorylation and the expression of IFIT1
[4]
  innate immune activation marked by IRF3 translocation into the nucleus: specifically induced innate immune activation
